According to patent US12054526B2, “Polypeptides, nucleic acid molecules, compositions, and related methods” (CHILDREN'S HOSPITAL MEDICAL CENTER, priority 2018, dated 2024):
“Also recorded” adds a separate entry of the source.

Key:
[1] = test system: WT C2C12 myoblasts; test: Synchronized fusion assay (LPC), WT C2C12; format: cell-based; settings: 50 μM CPZ 60 seconds at LPC removal, assayed after 30 minutes
Excerpt: (§1) We uncoupled the myoblast fusion stage of myogenic differentiation from the stages that prepare the cells for fusion using a fusion-synchronization approach described previously (GAMAGE et al. (2017) “Insights into the localization and function of myomaker during myoblast fusion” J Biol Chem, Vol. 292, pp. 17272-17289, which is herein incorporated by reference in its entirety; LEIKINA et al. (2013) “Extracellular annexins and dynamin are important for sequential steps in myoblast fusion” J Cell Biol, Vol. 200, pp. 109-123, which is herein incorporated by reference in its entirety). In brief, fusion-committed myoblasts were placed into complete medium supplemented with 150 μM lauroyl LPC (#855475P, Avanti Polar Lipids). 16 h later we washed the cells three times with LPC-free complete medium. […]
(§2) We labeled C2C12 cells 48 hours after placement in the differentiation medium, and co-plated differently labeled cells in a 1-to-1 ratio. […] Fusion was scored 30 min after LPC removal and thus […] after placing the cells into differentiation medium. […] We kept the cells in LPC-supplemented differentiation medium for 16 hours, washed out LPC with LPC-free medium and 30 minutes later (˜24 hours after placing the cells into differentiation medium) scored fusion. […]

[2] = test system: Myomerger^−/− C2C12 myoblasts; test: Synchronized fusion assay (LPC), Myomerger^−/− C2C12; format: cell-based; settings: 50 μM CPZ 60 seconds at LPC removal, assayed after 30 minutes
Excerpt: as §1, §2

[3] = test system: Myomaker^−/− C2C12 cells; test: Synchronized fusion assay (LPC), Myomaker^−/− C2C12; format: cell-based; settings: 50 μM CPZ 60 seconds at LPC removal, assayed after 30 minutes
Procedure: We labeled C2C12 cells 48 hours after placement in the differentiation medium, and co-plated differently labeled cells in a 1-to-1 ratio. […] Fusion was scored 30 min after LPC removal and thus −68 hours after placing the cells into differentiation medium. […] We kept the cells in LPC-supplemented differentiation medium for 16 hours, washed out LPC with LPC-free medium and 30 minutes later (˜24 hours after placing the cells into differentiation medium) scored fusion.
Formation of multinucleated myotubes was quantified as the percentage of cell nuclei present in myotubes normalized to the total number of cell nuclei. Hemifusion and fusion pore opening were quantified as a number of double-labeled mononucleated cells normalized to the total number of cell nuclei in the field. […]

[4] = test system: primary myoblasts; test: Myoblast fusion assay, Myomerger-deficient primary myoblasts; format: cell-based, mouse; settings: 0.06% OG in PBS 30 minutes
Excerpt: (§3) To specifically characterize different steps in fusion, we used 3 distinct assays: (i) hemifusion between cells labeled with membrane probe and content probe with unlabeled cells where hemifusion was detected as the appearance of lipid-labeled mononucleated cells without the content probe (FIG. 1A, FIG. 2A, FIG. 1E)); (ii) opening of a fusion pore in fusion between cells labeled with green cell tracker and cells labeled with orange cell tracker was detected as appearance of double-labeled cells (FIG. 1F); and (iii) fusion completion was detected as formation of multinucleated cells. […] Formation of multinucleated myotubes was quantified as the percentage of cell nuclei present in myotubes normalized to the total number of cell nuclei. Hemifusion and fusion pore opening were quantified as a number of double-labeled mononucleated cells normalized to the total number of cell nuclei in the field. For each condition, ≥8 randomly chosen fields of view were imaged. We also analyzed fusion by assessing the number of nuclei in myosin^+ cells. […] Samples were imaged with a Nikon Eclipse inverted microscope with AIR confocal running NIS Elements and images were analyzed with Fiji (SCHINDELIN et al. (2012) “Fiji: an open-source platform for biological-image analysis” Nat Methods, Vol. 9, pp. 676-682, which is herein incorporated by reference in its entirety) […]

[5] = test system: Myomerger^−/− C2C12 myoblasts; test: Myoblast fusion assay (myosin+ cells, nuclei count), Myomerger-deficient myoblasts; format: cell-based
Excerpt: To specifically characterize different steps in fusion, we used 3 distinct assays: (i) hemifusion between cells labeled with membrane probe and content probe with unlabeled cells where hemifusion was detected as the appearance of lipid-labeled mononucleated cells without the content probe (FIG. 1A, FIG. 2A, FIG. 1E)); (ii) opening of a fusion pore in fusion between cells labeled with green cell tracker and cells labeled with orange cell tracker was detected as appearance of double-labeled cells (FIG. 1F); and (iii) fusion completion was detected as formation of multinucleated cells. […] Formation of multinucleated myotubes was quantified as the percentage of cell nuclei present in myotubes normalized to the total number of cell nuclei. Hemifusion and fusion pore opening were quantified as a number of double-labeled mononucleated cells normalized to the total number of cell nuclei in the field. For each condition, ≥8 randomly chosen fields of view were imaged. We also analyzed fusion by assessing the number of nuclei in myosin^+ cells. Here, cells were fixed with 4% paraformaldehyde (PFA)/PBS, permeabilized with 0.02% Triton X-100/PBS, and blocked with 3% BSA/PBS followed by immunostaining with myosin antibodies (MF 20, Developmental Studies Hybridoma Bank, 1:40) for one hour at room temperature. Alexa-Fluor secondary antibody (Invitrogen, 1:250) was incubated for 30 minutes at room temperature. Nuclei were stained with Hoechst (Invitrogen). Samples were imaged with a Nikon Eclipse inverted microscope with AIR confocal running NIS Elements and images were analyzed with Fiji (SCHINDELIN et al. (2012) “Fiji: an open-source platform for biological-image analysis” Nat Methods, Vol. 9, pp. 676-682, which is herein incorporated by reference in its entirety)
For detergent and recombinant protein application, 2.5×10^4 myoblasts per well of an 8-well μ-slide (Ibidi) were differentiated for 72 hours. 0.06% Octyl-β-Glucoside (OG) (Anatrace) in differentiation media was incubated for 30 minutes at 37° C. Cells were washed with PBS and switched back to normal differentiation media for 5 hours. For primary myoblasts, 3×10^4 cells were plated per well of an 8-well μ-slide (Ibidi) coated with fibronectin (Sigma-Aldrich, 5 μg/cm^2) and differentiated for 36 hours. Cells were treated with 0.06% OG in PBS for 30 minutes at 37° C., washed with PBS and switched back to normal differentiation media for 2 hours. For recombinant proteins, cells were treated with various concentrations of rMBP or rMBP-Myomerger^26-84 (0.5 μM, 1.25 μM, 3 μM, 6.25 μM and 12.5 μM), or 6.25 μM of Magainin 2 (AnaSpec), in differentiation media for 20 hours at 37° C.

[6] = test system: C2C12 myoblasts; test: Myoblast fusion assay, WT myoblasts; format: cell-based
Excerpt: as §3

[7] = test system: Myomaker^−/− C2C12 myoblasts; test: Myoblast fusion assay (myosin+ cells, nuclei count), Myomaker-deficient myoblasts; format: cell-based
Excerpt: as §3

[8] = test system: mouse Red Blood Cells (RBCs); test: Red blood cell hemolysis (spectrophotometer); format: cell-based; settings: Myomerger ectodomain at 25 μM
Procedure: Myomerger ectodomain (amino acids 26-84) was added to mouse Red Blood Cells (RBCs) and hemolysis was measured using a spectrophotometer (FIG. 9).

[9] = test system: Escherichia coli (E. coli); test: Bactericidal assay, colony forming units; format: cell-based; settings: 25 μM, 2 hours
Procedure: (§4) Gram-positive bacteria Listeria monocytogenes (Lm) and gram-negative bacteria Escherichia coli (E. coli) were treated with 25 μM recombinant Myomerger ectodomain (labeled as “protein” in FIG. 8) for 2 hours.

[10] = test system: Listeria monocytogenes (Lm); test: Bactericidal assay, colony forming units; format: cell-based; settings: 25 μM, 2 hours
Procedure: as §4

[11] = 0.06% OG 30 minutes on day 3 of differentiation, fusion assessed 5 hours after treatment
[12] = 6.25 μM Magainin 2, 20 hours on day 3 of differentiation

**Q.** With CN(C)CCCN1c2ccccc2Sc2ccc(Cl)cc21 [CPZ, chlorpromazine] as the molecule, how does the “fusion (syncytium formation)” value [1] read?
**A.** The value was “little effect”.

**Q.** What about the “fusion (syncytium formation)” value [2] of the same molecule?
**A.** Its value is “reached fusion levels observed for WT myoblasts”.

**Q.** What about the “fusion (syncytium formation)” value [3] of the same molecule?
**A.** The value was “No fusion was observed”.

**Q.** CCCCCCCCO[C@@H]1O[C@H](CO)[C@@H](O)[C@H](O)[C@H]1O [OG, Octyl-β-Glucoside] was tested. Which fusion [4] did it give?
**A.** Its fusion is “compensate for loss of Myomerger”.

**Q.** What about the fusion [5, 11] of the same molecule?
**A.** Its fusion is “obvious fusion events; also recorded: induced fusion”.

**Q.** And the “percentage of myosin+ cells with 3 or ≥4 nuclei” value ([5]; OG treatment)?
**A.** The value was “increased the percentage of cells with 3 nuclei but also induced formation of myotubes with ≥4 nuclei”.

**Q.** What about the fusion ([6]; OG treatment) of the same molecule?
**A.** The fusion was “did not have an effect”.

**Q.** What about the fusion [7, 11] of the same molecule?
**A.** Its fusion is “did not fuse”.

**Q.** Magainin 2 [Mag2] was tested. Which fusion [5, 12] did it give?
**A.** The fusion was “partially rescued fusion; also recorded: induced myotube formation”.

**Q.** And the “percentage of myosin+ cells with 3 or ≥4 nuclei” value ([5]; Mag2 treatment)?
**A.** The value was “increased the percentage of cells with 3 nuclei but also induced formation of myotubes with ≥4 nuclei”.

**Q.** And the fusion ([6]; Mag2 treatment)?
**A.** The fusion was “did not have an effect”.

**Q.** And the hemolysis [8]?
**A.** Its hemolysis is “no measurable effect”.

**Q.** What about the fusion [7, 12] of the same molecule?
**A.** Its fusion is “had no effect”.

B1: Myomerger ectodomain: recombinant Myomerger ectodomain (amino acids 26-84) used in Example Set B (protein)
chain: MPVPLLPMVLRSLLSRLLLPVARLARQHLLPLLRRLARRLSSQDMREALLSCLLFVLSQQQPPDSGEASRVDHSQRKERLGPQK
**Q.** How did the “growth (colony forming units)” value [9] turn out when B1 was run?
**A.** The value was “disrupts the growth”.

**Q.** And the “growth (colony forming units)” value [10]?
**A.** Its value is “disrupts the growth”.

**Q.** And the “effect on Lm compared to E. coli” value ([10]; gram-positive vs gram-negative)?
**A.** Its value is “more of an effect”.

**Q.** And the hemolysis [8]?
**A.** Its hemolysis is “induced lysis”.
